This note sets out measurements from ChEMBL document CHEMBL1201862, “PubChem BioAssay data set” (2004).

Assay [1] has as its target T1, Orexin/Hypocretin receptor type 1 (Homo sapiens, UniProt O43613).
T1 sequence (O43613 whole entry): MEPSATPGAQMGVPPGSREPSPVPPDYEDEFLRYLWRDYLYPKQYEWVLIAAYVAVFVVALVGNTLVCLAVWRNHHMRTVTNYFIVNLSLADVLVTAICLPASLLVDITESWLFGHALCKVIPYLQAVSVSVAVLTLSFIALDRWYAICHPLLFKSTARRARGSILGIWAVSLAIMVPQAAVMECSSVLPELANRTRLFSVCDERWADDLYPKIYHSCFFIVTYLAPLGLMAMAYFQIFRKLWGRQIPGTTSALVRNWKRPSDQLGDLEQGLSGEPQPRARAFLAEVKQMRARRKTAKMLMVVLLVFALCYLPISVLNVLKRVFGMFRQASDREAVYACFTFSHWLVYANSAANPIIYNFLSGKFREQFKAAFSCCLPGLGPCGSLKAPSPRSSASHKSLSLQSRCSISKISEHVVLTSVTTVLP
Nature of the assay: Homogeneous Time Resolved Fluorescence (HTRF)-based cell-based high throughput dose response assay for antagonists of the orexin 1 receptor (OX1R; HCRTR1). [Related pubchem assays (depositor defined):AID434989, AID435008, AID463079, AID485270, AID492963, AID492964, AID492965, AID493232, AID504717, AID504718]. The format is functional. (In general: In TR-FRET formats the signal depends on donor and acceptor labels being close together.)

Assay [2] addresses T2, Orexin receptor type 2 (Homo sapiens, UniProt O43614).
T2 sequence (O43614 whole entry): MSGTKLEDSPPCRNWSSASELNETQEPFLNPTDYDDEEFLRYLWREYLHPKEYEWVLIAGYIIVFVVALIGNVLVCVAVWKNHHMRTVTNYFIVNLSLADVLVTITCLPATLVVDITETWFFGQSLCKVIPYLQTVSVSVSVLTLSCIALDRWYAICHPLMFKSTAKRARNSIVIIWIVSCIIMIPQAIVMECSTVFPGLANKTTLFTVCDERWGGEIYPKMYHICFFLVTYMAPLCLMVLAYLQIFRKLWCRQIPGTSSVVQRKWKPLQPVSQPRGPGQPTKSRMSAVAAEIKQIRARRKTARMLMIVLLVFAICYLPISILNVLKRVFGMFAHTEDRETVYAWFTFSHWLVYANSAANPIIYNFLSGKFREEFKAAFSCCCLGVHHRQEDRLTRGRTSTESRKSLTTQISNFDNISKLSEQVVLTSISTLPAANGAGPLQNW
In words: Counterscreen assay for antagonists of the orexin 1 receptor (OX1R; HCRTR1): Homogeneous Time Resolved Fluorescence (HTRF)-based cell-based dose response assay for antagonists of the orexin 2 receptor (OX2R; HCRTR2), run by assay provider. It is filed as functional. Background: Counterscreens check selectivity or assay interference.

For a further assay, the system named is CHO-K1. Nature of the assay: Counterscreen for antagonists of the orexin 1 receptor (OX1R; HCRTR1): Homogeneous time resolved fluorescence (HTRF)-based cell-based dose response assay to identify antagonists of the parental CHO-K1 cell line. [Related pubchem assays (depositor defined):AID434989, AID435008, AID463079, AID485270, AID492963, AID492964, AID492965, AID493232, AID504699, AID504701]. It is filed as functional. Conditions: Cricetulus griseus.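 Note: potency for inhibition of ATP-stimulated IP1 production as antagonists.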

The subject of a further assay is Streptococcus. Nature of the assay: Group A Streptococcus viability loss, dose response, counter-screen for streptokinase expression inhibitor project, luminescence, BacTiterGlo (AID 1915).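 Note: potency for reduction of bacterial viability or growth.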 The format is functional, organism-based.
Assay [3] concerns Streptococcus sp. 'group A'. Nature of the assay: growth inhibition of control SK(-) GAS strain, dose response, counter-screen for streptokinase expression inhibitor project, luminescence, kanamycin, BacTiterGlo, confirmation (AID 1900). It is filed as functional, organism-based.
Another assay concerns the target T3, Streptokinase A (Streptococcus pyogenes serotype M1, UniProt P10520).
T3 sequence (P10520 whole entry): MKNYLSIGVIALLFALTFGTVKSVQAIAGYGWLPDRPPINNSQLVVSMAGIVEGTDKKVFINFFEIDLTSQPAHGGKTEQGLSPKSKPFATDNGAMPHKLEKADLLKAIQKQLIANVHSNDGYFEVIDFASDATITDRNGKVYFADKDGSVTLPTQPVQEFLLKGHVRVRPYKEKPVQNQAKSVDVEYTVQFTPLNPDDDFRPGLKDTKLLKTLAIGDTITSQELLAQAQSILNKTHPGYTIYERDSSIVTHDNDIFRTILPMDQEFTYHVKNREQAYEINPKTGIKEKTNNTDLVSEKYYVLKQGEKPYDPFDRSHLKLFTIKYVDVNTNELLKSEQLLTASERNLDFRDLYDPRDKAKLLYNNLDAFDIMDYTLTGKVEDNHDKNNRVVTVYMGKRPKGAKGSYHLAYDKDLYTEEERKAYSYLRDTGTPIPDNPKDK
Nature of the assay: S. pyogenes streptokinase expression inhibitors, potency, dose response, plasminogen activation absorbance, OD405 (AID 1914).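 Note: secreted streptokinase activity via plasminogen activation per viability signal from cell pellet.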 The format is functional, Streptococcus pyogenes M1 GAS.

Assay [4] has as its target T1, Orexin/Hypocretin receptor type 1. Nature of the assay: Fluorescence-based cell-based high throughput dose response assay for antagonists of the orexin 1 receptor (OX1R; HCRTR1). [Related pubchem assays (depositor defined):AID434989, AID435008, AID463079, AID485270, AID492963, AID492964, AID492965, AID493232, AID504717, AID504718]. The format is functional.
Assay [5] deals with T2, Orexin receptor type 2. Nature of the assay: Counterscreen assay for antagonists of the orexin 1 receptor (OX1R; HCRTR1): Fluorescence-based cell-based dose response assay for antagonists of the orexin 2 receptor (OX2R; HCRTR2), run by assay provider. The format is functional.
Assay [6] in a line: Counterscreen for antagonists of the orexin 1 receptor (OX1R; HCRTR1): Fluorescence-based cell-based high throughput dose response assay to identify antagonists of the parental CHO cell line. [Related pubchem assays (depositor defined):AID434989, AID435008, AID463079, AID485270, AID492963, AID492964, AID492965, AID493232, AID504699, AID504701]. The format is functional.
Assay [7] concerns the target T4, Neuropeptides B/W receptor type 1 (Homo sapiens, UniProt P48145).
T4 sequence (P48145 whole entry): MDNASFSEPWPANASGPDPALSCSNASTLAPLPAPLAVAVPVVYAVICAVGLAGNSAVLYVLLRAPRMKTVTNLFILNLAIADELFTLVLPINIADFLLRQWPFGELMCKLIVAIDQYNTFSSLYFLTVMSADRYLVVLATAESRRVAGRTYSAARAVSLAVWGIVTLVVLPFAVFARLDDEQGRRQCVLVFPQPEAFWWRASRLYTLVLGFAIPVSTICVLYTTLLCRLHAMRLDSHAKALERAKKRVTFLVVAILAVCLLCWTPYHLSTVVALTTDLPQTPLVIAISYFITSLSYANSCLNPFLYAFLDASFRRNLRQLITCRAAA
In words: GPR7 antagonist potency, late-stage follow-up, cell-based, fluorescence, dose response, set 5 (AID 588566). It is filed as functional.

Assay [8] deals with Melanin-concentrating hormone receptor 1 (Homo sapiens, UniProt Q99705). Nature of the assay: Late-stage fluorescence-based counterscreen for antagonists of the G-protein coupled receptor 7 (GPR7): cell-based dose response assay to identify antagonists of the melanin-concentrating hormone receptor 1 (MCHR1) Set 5. It is filed as functional.
The target in assay [9] is Benomyl/methotrexate resistance protein (Candida albicans, UniProt P28873). In words: CaMdr1 efflux pump inhibitor potency, dose response, singleplex, Cherry Pick1 hits (AID 588608). It is filed as functional.
For assay [10], the target named is T5, Interleukin-8 (Homo sapiens, UniProt P10145). In words: Dose Response confirmation of uHTS small molecule hits for cystic fibrosis induced NFkb Inhibitors in a TNFa-induced IL8 counterscreen. It is filed as functional. To be noted: read-out: IC50_Mean.
For assay [11], the target named is T5, Interleukin-8. In words: Dose Response confirmation of uHTS small molecule hits for cystic fibrosis induced NFkb Inhibitors in a PAF-induced IL8 counterscreen. The format is functional. Conditions: read-out: IC50_Mean.
The target in assay [12] is T6, Apoptotic protease-activating factor 1 (Homo sapiens, UniProt O14727).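 Note: caspase-3 cleavage of fluorogenic Rh110 DEVD substrate downstream of apoptosome activation.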
T6 sequence (O14727 whole entry): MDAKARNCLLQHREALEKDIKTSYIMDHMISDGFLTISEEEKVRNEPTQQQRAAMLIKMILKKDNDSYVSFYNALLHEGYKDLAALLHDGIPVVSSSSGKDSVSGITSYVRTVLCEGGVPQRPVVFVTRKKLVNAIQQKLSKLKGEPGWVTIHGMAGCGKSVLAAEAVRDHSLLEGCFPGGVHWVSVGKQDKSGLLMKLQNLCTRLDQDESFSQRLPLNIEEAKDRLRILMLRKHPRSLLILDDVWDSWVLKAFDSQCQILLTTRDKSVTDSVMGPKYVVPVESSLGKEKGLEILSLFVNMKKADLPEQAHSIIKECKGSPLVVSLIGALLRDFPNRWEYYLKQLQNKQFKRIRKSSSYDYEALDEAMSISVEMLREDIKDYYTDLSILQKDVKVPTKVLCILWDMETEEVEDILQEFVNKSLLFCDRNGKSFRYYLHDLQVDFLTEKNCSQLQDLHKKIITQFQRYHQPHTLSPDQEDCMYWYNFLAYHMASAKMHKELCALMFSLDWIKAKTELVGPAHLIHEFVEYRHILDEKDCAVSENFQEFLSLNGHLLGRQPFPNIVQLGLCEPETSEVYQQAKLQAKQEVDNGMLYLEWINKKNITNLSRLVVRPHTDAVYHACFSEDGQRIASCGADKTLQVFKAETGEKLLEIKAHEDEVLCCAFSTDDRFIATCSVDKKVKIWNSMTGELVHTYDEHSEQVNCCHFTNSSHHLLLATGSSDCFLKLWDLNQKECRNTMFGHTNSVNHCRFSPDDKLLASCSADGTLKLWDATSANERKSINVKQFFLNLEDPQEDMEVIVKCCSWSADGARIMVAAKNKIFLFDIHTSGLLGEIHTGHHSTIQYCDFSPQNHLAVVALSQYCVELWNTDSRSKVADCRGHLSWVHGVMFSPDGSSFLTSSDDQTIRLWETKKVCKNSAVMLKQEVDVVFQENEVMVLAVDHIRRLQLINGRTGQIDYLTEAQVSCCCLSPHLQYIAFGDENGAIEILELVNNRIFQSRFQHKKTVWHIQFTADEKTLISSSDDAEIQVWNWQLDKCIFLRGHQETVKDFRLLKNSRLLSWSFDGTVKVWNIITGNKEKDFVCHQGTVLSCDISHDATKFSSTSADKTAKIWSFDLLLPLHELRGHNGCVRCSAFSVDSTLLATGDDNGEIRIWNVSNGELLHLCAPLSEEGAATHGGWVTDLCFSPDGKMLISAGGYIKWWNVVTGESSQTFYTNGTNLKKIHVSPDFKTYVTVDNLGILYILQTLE
Nature of the assay: SAR analysis of small molecule Activators of Apaf-1 in a Fluorescent assay. It is filed as functional. To be noted: read-out: EC50_Mean.

Assay [13] can be described thus: nonselective inhibitors of cellular cAMP signaling, dose response, counter-screen for MC4R biased antagonist project, cell-based, TR-FRET cAMP detection (AID 602305).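 Note: U2OS cells stimulated with forskolin near its EC80 as the cAMP inducer; potency is for inhibition of forskolin-stimulated cAMP signaling.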 The format is functional.
A further assay addresses Melanocortin receptor 4 (Homo sapiens, UniProt P32245). In words: MC4R antagonist potency on cAMP, dose response, cell-based, TR-FRET, biased antagonists (AID 602298).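 Note: antagonist potency against agonist-stimulated cAMP production.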 It is filed as functional.

Calls of active or inactive are those of the source. Some results are limits rather than exact numbers.

T5 sequence (P10145 whole entry): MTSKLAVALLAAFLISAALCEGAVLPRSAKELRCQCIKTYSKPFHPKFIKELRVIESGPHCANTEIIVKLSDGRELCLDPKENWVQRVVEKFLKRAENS
Sequence of Melanin-concentrating hormone receptor 1 (Q99705 whole entry): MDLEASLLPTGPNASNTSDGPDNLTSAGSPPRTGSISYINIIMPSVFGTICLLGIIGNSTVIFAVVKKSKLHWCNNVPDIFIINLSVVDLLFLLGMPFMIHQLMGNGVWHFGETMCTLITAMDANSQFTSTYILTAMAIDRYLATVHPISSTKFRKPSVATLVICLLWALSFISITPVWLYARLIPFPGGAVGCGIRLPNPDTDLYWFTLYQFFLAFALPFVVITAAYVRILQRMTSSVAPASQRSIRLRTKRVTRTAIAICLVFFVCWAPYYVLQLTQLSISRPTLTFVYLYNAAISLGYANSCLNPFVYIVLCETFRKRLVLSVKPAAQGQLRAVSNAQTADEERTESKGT
Sequence of Melanocortin receptor 4 (P32245 whole entry): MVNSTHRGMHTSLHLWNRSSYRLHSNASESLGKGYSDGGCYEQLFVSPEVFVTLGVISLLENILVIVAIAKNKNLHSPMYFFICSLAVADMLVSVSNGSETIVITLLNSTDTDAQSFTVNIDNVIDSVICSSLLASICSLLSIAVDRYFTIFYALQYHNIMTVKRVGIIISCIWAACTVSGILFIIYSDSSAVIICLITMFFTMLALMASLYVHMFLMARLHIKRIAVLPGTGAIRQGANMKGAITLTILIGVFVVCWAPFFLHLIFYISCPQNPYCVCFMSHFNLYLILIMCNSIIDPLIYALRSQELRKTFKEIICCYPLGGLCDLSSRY
Sequence of Benomyl/methotrexate resistance protein (P28873 whole entry): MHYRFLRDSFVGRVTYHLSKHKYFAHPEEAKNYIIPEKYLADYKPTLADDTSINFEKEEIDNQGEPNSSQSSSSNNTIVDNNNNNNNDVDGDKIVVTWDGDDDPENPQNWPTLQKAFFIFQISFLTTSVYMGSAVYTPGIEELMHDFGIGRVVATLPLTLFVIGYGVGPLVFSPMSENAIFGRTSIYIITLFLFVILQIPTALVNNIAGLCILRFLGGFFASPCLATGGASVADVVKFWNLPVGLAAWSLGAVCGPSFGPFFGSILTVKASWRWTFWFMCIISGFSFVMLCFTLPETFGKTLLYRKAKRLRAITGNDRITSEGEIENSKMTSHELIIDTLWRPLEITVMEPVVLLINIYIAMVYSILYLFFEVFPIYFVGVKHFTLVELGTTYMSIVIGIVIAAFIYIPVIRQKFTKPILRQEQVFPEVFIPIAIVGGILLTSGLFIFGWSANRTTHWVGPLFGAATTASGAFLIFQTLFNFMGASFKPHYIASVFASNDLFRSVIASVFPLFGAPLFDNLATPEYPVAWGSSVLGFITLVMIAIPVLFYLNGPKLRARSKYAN

In the case of `Cc1cnc(NC(=O)c2cc3c(C)nn(-c4ccccc4)c3s2)s1`, the IC50 in [1] is 2.21 µM (active); at Orexin receptor type 2 [2] it was > 50 µM (inactive); in the assay on CHO-K1, > 66.2 µM (inactive); in assay [4] it was 2.37 µM (active); at Orexin receptor type 2 [5] it was 60.4 µM (inactive); in assay [6], > 49.7 µM (inactive). The EC50 is > 150 µM (not active) in the assay with Streptococcus, 2.5 µM (active) in assay [3] and > 150 µM (not active) on Streptokinase A.
Regarding `COc1ccc(Oc2c(Cl)cnn(C(C)c3ccccc3C)c2=O)cc1` (centres undefined), the results for the IC50 in assay [7] and in assay [8] were 8.01 µM (active) and 9.16 µM (active), respectively.
Turning to `COc1ccccc1-c1sc2ccccc2c1-c1ccc(OCCN2CCCCC2)cc1`, the EC50 in assay [9] was 18.9 µM (active).
`c1ccc2c(-c3ccc4nncn4c3)cncc2c1`: the IC50 on Interleukin-8 [10] is > 79 µM (inactive); on Interleukin-8 [11], 12.4 µM (inactive).
For `CC1(C)CC2CC(C)(CN2C(=O)C2CC(c3ccc(F)cc3)=NO2)C1` (centres undefined), the EC50 in assay [12] is > 100 µM (inactive).
Consider `CCOC(=O)C(C(=O)OCC)c1c(Cl)cnn(Cc2cccc3ccccc23)c1=O`, for which the IC50 in assay [7] is 3.77 µM (active); in assay [8], 4.03 µM (active).
As to `O=S(=O)(c1ccc(Br)c2nsnc12)N1CCOCC1`, the IC50 (in assay [13]; on Melanocortin receptor 4) was > 64.6 µM (inactive) in each case.
